Laboratory results reported in the supplement of paper PMC4862054.
Values belong to the compound of their own block, whether it stands above or below them.

Tests used:
Conditions in all cases: 72 h
[1] = test system: HDQ-P1
Description: (§1)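 Drug sensitivity and resistance testing (DSRT) of breast cancer cell lines in 384-well plates, 5 concentrations in 10-fold dilutions over a compound-specific 10,000-fold range. After 72 h, cytotoxicity was read by CellTox Green fluorescence and viability by CellTiter-Glo luminescence (multiplexed), normalised to DMSO and benzethonium chloride controls. EC50 is the inflection point of the fitted dose-response curve (bottom asymptote free, so it can be relative for partial curves) and is censored at the highest tested concentration. Rows with DSS 0 (no meaningful response) were excluded.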

[2] = test system: Hs578T
Description: as §1

[3] = test system: MDA-MB-468
Description: as §1

[4] = test system: BT-474
Procedure, shortened: (§2)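 In this assay, breast cancer cell lines spent 72 h with compound at 5 concentrations in 10-fold steps over a compound-specific 10,000-fold range. The first readout was cell death by CellTox Green fluorescence, and the second was viability by CellTiter-Glo luminescence, each normalised per plate to 0.1 % DMSO and a positive kill control. EC50 came from the dose-response curves, censored at the top concentration.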

[5] = test system: BT-549
Procedure, shortened: as §2

[6] = test system: CAL-120
Procedure, shortened: as §2

[7] = test system: CAL-148
Procedure, shortened: as §2

[8] = test system: CAL-51
Procedure, shortened: as §2

[9] = test system: CAL-85-1
Procedure, shortened: as §2

[10] = test system: DU-4475
Procedure, shortened: as §2

[11] = test system: HCC1143
Procedure, shortened: as §2

[12] = test system: HCC1599
Procedure, shortened: as §2

[13] = test system: HCC1937
Procedure, shortened: as §2

[14] = test system: HDQ-P1; remark: listed apart in the source
Procedure, shortened: as §2

[15] = test system: Hs578T; remark: listed apart in the source
Procedure, shortened: as §2

[16] = test system: MCF-10A
Procedure, shortened: as §2

[17] = test system: MDA-MB-231
Procedure, shortened: as §2

[18] = test system: MDA-MB-436
Procedure, shortened: as §2

[19] = test system: MDA-MB-468; remark: listed apart in the source
Procedure, shortened: as §2

[20] = test system: MFM-223
Procedure, shortened: as §2

[21] = test system: SK-BR-3
Procedure, shortened: as §2

[22] = test system: CAL-85-1; remark: listed apart in the source
Description: as §1

[23] = test system: MDA-MB-453
Procedure, shortened: (§3)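 Breast cancer cell lines in 20 µl suspension were seeded onto 384-well plates pre-loaded with compound dissolved in 5 µl medium, then incubated 72 h. For viability, 2.5 µl CellTiter-Blue was added for 2 h at 37 °C and fluorescence read at 560/590 nm. Each plate was normalised to vehicle and a positive kill control and checked by Z'-factor. EC50 comes from the fitted percent-inhibition dose-response curve, censored at the highest concentration; rows with zero drug sensitivity score were dropped.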

[24] = test system: SK-BR-3; remark: listed apart in the source
Procedure, shortened: as §3

[25] = test system: CAL-148; remark: listed apart in the source
Procedure, shortened: as §3

[26] = test system: CAL-51; remark: listed apart in the source
Procedure, shortened: as §3

[27] = test system: CAL-85-1; remark: listed apart in the source
Procedure, shortened: as §3

[28] = test system: DU-4475; remark: listed apart in the source
Procedure, shortened: as §3

[29] = test system: BT-549; remark: listed apart in the source
Procedure, shortened: as §3

[30] = test system: CAL-120; remark: listed apart in the source
Procedure, shortened: as §3

[31] = test system: HCC1143; remark: listed apart in the source
Procedure, shortened: as §3

[32] = test system: HCC1599; remark: listed apart in the source
Procedure, shortened: as §3

[33] = test system: HCC1937; remark: listed apart in the source
Procedure, shortened: as §3

[34] = test system: Hs578T; remark: listed apart in the source
Procedure, shortened: as §3

[35] = test system: MDA-MB-231; remark: listed apart in the source
Procedure, shortened: as §3

[36] = test system: MDA-MB-436; remark: listed apart in the source
Procedure, shortened: as §3

[37] = test system: MDA-MB-468; remark: listed apart in the source
Procedure, shortened: as §3

[38] = test system: CAL-148; remark: listed apart in the source
Description: as §1

[39] = test system: MDA-MB-453; remark: listed apart in the source
Procedure, shortened: as §2

[40] = test system: MDA-MB-231; remark: listed apart in the source
Description: as §1

SMILES: Cn1cc(C[C@@H](N)C(=O)O)c2ccccc21 [1-methyl-D-tryptophan]
EC50, CellTox Green [1]: > 5000 nM | EC50, CellTox Green [2]: > 5000 nM | EC50, CellTox Green [3]: > 5000 nM

SMILES: Cc1cc2c(F)c(Oc3ncnn4cc(OC[C@@H](C)O)c(C)c34)ccc2[nH]1 [Brivanib]
EC50, CellTiter-Glo [8]: 176 nM | EC50, CellTox Green [22]: > 1000 nM

SMILES: CCCCCOC(=O)Nc1nc(=O)n([C@@H]2O[C@H](C)[C@@H](O)[C@H]2O)cc1F [Capecitabine]
EC50, CellTiter-Glo [18]: 5970 nM | EC50, CellTiter-Blue viability [23]: 7520 nM | EC50, CellTiter-Blue viability [24]: 9200 nM

SMILES: Nc1nc(Cl)nc2c1ncn2[C@@H]1O[C@H](CO)[C@@H](O)[C@@H]1F [Clofarabine]
EC50, CellTiter-Glo [4]: 196 nM | EC50, CellTiter-Glo [5]: 211 nM | EC50, CellTiter-Glo [6]: 305 nM | EC50, CellTiter-Glo [7]: 601 nM | EC50, CellTiter-Glo [8]: 261 nM | EC50, CellTiter-Glo [9]: 398 nM | EC50, CellTiter-Glo [10]: 872 nM | EC50, CellTiter-Glo [11]: 320 nM | EC50, CellTiter-Glo [12]: 1740 nM | EC50, CellTiter-Glo [14]: 482 nM | EC50, CellTiter-Glo [15]: 3150 nM | EC50, CellTiter-Glo [16]: 675 nM | EC50, CellTiter-Glo [17]: 524 nM | EC50, CellTiter-Glo [18]: 219 nM | EC50, CellTiter-Glo [19]: 627 nM | EC50, CellTiter-Glo [21]: 201 nM | EC50, CellTiter-Blue viability [25]: 563 nM | EC50, CellTiter-Blue viability [26]: 870 nM | EC50, CellTiter-Blue viability [27]: 152 nM | EC50, CellTiter-Blue viability [28]: 472 nM | EC50, CellTiter-Blue viability [23]: 484 nM | EC50, CellTiter-Blue viability [29]: 340 nM | EC50, CellTiter-Blue viability [30]: 116 nM | EC50, CellTiter-Blue viability [31]: 118 nM | EC50, CellTiter-Blue viability [32]: 2220 nM | EC50, CellTiter-Blue viability [33]: 180 nM | EC50, CellTiter-Blue viability [34]: 149 nM | EC50, CellTiter-Blue viability [35]: 20.5 nM | EC50, CellTiter-Blue viability [36]: 104 nM | EC50, CellTiter-Blue viability [37]: 453 nM | EC50, CellTiter-Blue viability [24]: 90.6 nM | EC50, CellTox Green [38]: 169 nM | EC50, CellTox Green [22]: 1420 nM | EC50, CellTox Green [3]: > 10000 nM

The next lines start with results.

EC50, CellTiter-Glo [4]: 699 nM | EC50, CellTiter-Glo [5]: 139 nM | EC50, CellTiter-Glo [11]: 359 nM | EC50, CellTiter-Glo [12]: 649 nM | EC50, CellTiter-Glo [13]: 333 nM | EC50, CellTiter-Glo [17]: 287 nM | EC50, CellTiter-Glo [18]: 176 nM | EC50, CellTiter-Glo [19]: 85 nM | EC50, CellTiter-Glo [21]: 491 nM
SMILES: CC[C@H](CC#N)OC(=O)N[C@@H](C)c1cccc(NC(=O)Nc2ccc(-c3cnco3)c(OC)c2)c1 [AVN944]
EC50, CellTiter-Glo [6]: 376 nM | EC50, CellTiter-Glo [7]: 236 nM | EC50, CellTiter-Glo [8]: 196 nM | EC50, CellTiter-Glo [9]: 174 nM | EC50, CellTiter-Glo [10]: 465 nM | EC50, CellTiter-Glo [14]: 198 nM | EC50, CellTiter-Glo [15]: 532 nM | EC50, CellTiter-Glo [16]: 176 nM | EC50, CellTiter-Glo [20]: 859 nM | EC50, CellTox Green [2]: 191 nM

EC50, CellTiter-Glo [39]: 379 nM | EC50, CellTiter-Blue viability [23]: 15.7 nM
SMILES: C[C@@H]1C[C@H]2[C@@H]3CCC4=CC(=O)C=C[C@]4(C)[C@@]3(F)[C@@H](O)C[C@]2(C)[C@@]1(O)C(=O)CO [Dexamethasone]
EC50, CellTiter-Glo [6]: 7.49 nM

EC50, CellTiter-Glo [4]: 722 nM | EC50, CellTiter-Glo [18]: 636 nM | EC50, CellTiter-Glo [19]: 6610 nM
SMILES: Cc1c(C(=O)Nc2ccc(N3C[C@@H](C)O[C@@H](C)C3)nc2)cccc1-c1ccc(OC(F)(F)F)cc1 [Erismodegib]
EC50, CellTiter-Glo [8]: 41 nM | EC50, CellTox Green [40]: > 10000 nM
